From patent US7815905B2, “Methods of increasing insulin sensitivity or decreasing insulin secretion by administering corticotropin releasing factor receptor-2 inhibitors” (Research Development Foundation, priority 2006, dated 2010)
Entries after “also recorded” stand apart in the source; their conditions may differ. Ends that are not written are not given here.

Columns and labels:
[1] = test system: insulin signaling in C2C12 myotubes; assay: Phosphorylation studies of insulin signaling in C2C12 myotubes; format: cell-based; details: pretreatment with the PKA inhibitor
Description: FIG. 3a-l: Urocortin 2 effects on muscle glucose uptake are mediated by inhibition of insulin signaling. (a-f). Ucn 2 inhibits the insulin-induced Akt and ERK1/2 phosphorylation but not the insulin receptor phosphorylation. Differentiated C2C12 myotubes were pre-incubated with or without Ucn 2 peptide (0.1, 1 or 10 nM) for 1 hour prior to insulin treatment (10 nM, 5 min). Cell lystates were resolved using 4-12% gradient polyacrylamide gels. Gels were electrophorectically transferred to membranes and probed with antibodies specific for the phospho proteins pAkt (Ser 473), pERK1/2 or pIR (Tyr1146). Stimulation of Akt, ERK or insulin receptor (IR) activation was calculated by fold activation of the phosphorylated form normalized to total and compared with the untreated controls (a, d and f, graphs). […] (g-j) Ucn 2 treatment increases the phosphorylation of serine residue 307 and not the tyrosin phosphorylation of IRS-1. Myotube cells, treated with or without PKA inhibitor (H-89), were incubated with insulin and different concentrations of Ucn 2. IRS-1 immunoprecipitated proteins were electrophoresed as before and the immunoblots were probed for phosphorylated tyrosin (g), phosphorylated serine 307 IRS-1 (i) and total IRS-1 (g, i). […] (k) The effect of Ucn 2 on [^3H]2-deoxy-D-glucose uptake in differentiated C2C12 myotubes. Cells were incubated for 2 hours in low glucose, serum free medium and treated with Ucn 2 (0.1, 1 or 10 nM) or without (control) for 30 min prior to insulin administration (10 nM). Glucose uptake was measured 5 min following exposure to [^3H]2-deoxy-D-glucose. Non-specific uptake was measured by incubating muscle tissue with cytochalasin B, which binds to the glucose uptake transporter (GLUT) and inhibits glucose transport into the cell. Specific uptake was calculated by subtracting non specific from total glucose. (l) Schematic representation of the putative cellular mechanisms mediating the effect of Ucn 2 and CRFR2 on the insulin signaling and glucose uptake in skeletal muscle cells. * indicates p<0.05 vs. no treatment. # indicates p<0.05 vs. insulin treatment (b, d, f) or p<0.05 vs. insulin treatment and Ucn 2 (i).
Differentiated C2C12 myotubes were pre-incubated with or without Ucn 2 peptide (0.1, 1 or 10 nM) for 1 hour prior to insulin treatment (10 nM, 5 min). Cells were harvested immediately in 100 μl of sample treatment buffer [STB, 50 mM Tris (pH 6.8), 100 mM dithiothreitol, 2% (wt/vol) sodium dodecyl sulfate, 0.1% (wt/vol) bromphenol blue, and 10% (wt/vol) glycerol]. The samples were boiled for 5 min, proteins were electrophoresed on 4-12% sodium dodecyl sulfate-polyacrylamide gradient gel (Invitrogen Life Technologies), subsequently transferred onto nitrocellulose membranes, and probed with antibodies specific for phosphorylated Akt (Ser 473, Cell Signaling Technology, Inc., Beverly, Mass.), phosphorylated ERK1/2-p42, 44 (Santa Cruz Biotechnology, Inc., Santa Cruz, Calif.), phosphorylated insulin receptor (Tyr 1146, Cell Signaling Technology, Inc.), or phosphorylated IRS1 (Ser 307, Upstate Cell Signaling Solutions, Lake placid, NY). The membranes were washed with phosphate buffer saline containing 0.05% (vol/vol) Tween 20 and incubated with horseradish peroxidase-conjugated anti mouse or rabbit IgG raised in sheep (Amersham Biotech Pharmacia). Immunoreactive proteins were visualized using Super Signal West Pico Chemiluminescent substrate (Pierce, Rockford, Ill.). The relative protein levels were determined using densitometry (Image quant 1.2) by probing the membranes with antibodies directed against total proteins.

MIN6 cells = assay: Ucn 3 secretion from MIN6 cells (Ucn 3 RIA); format: cell-based, mouse; details: for Ucn 3 secretion in the presence of 2.8 mM glucose / Ucn 3 release in the presence of 10 mM glucose: 2 h at 37° C.
Source text: FIG. 8a-e: Elevation of pancreatic Ucn 3 expression in diabetic rodent models and stimulation of Ucn 3 release from β cells by glucose. (a) Representative agarose gel electrophoresis showing Ucn 3 and S-16 (control) PCR products. (b) Summary of Ucn 3 expression in ob/ob obese mice and the wildtype (WT) littermates. *: p<0.05 vs WT. (c) Ucn 3 mRNA levels in the pancreas of high fat fed rats (HF) and chow fed controls (Ctrl). *: p<0.05 vs Ctrl. (d) Ucn 3 secretion from MIN6 cells in response to various glucose concentrations. (e) Ucn 3 release from MIN6 cells, in response to glucose and/or insulin secretagogues.
Ucn 3 secretion from P cells was studied using a mouse clonal P cell line, MIN6, as a model. For these studies MIN6 cells (Miyazaki et al., 1990) were cultured in DMEM supplemented with 10% fetal bovine serum (FBS), and 114 μm β-mercaptoethanol. To assess Ucn 3 secretion, the cells were seeded in 6-well plates and allowed to recover for 48 hrs. The cells were then washed twice with HEPES-balanced Krebs-Ringer bicarbonate buffer (HKRB) containing 5 mM glucose and 0.2% BSA and were incubated in HKRB with various testing reagents for 2 h at 37° C. The incubation buffer was collected and vacuum-dried for Ucn 3 RIA. Exendin-4 and diazoxide and carbachol were purchased from Phoenix Pharmaceuticals (Belmont, Calif.), and Sigma (St. Louis, Mo.), respectively. […] The effect of glucose on Ucn 3 secretion plateaued at 16.8 mM.

[2] = test system: C57/B6 mice fed with high fat diet; assay: Ucn 3 treatment of high fat diet fed mice; format: in vivo, mouse; details: high fat diet 16 weeks; 30 μg/kg i.p. for 6 days; vs vehicle
Description: FIG. 6: The in vivo effect of Ucn 3 on insulin levels and blood glucose in a mouse model of type 2 diabetes. Wild-type mice were fed a high fat diet for 16 weeks to induce hyperglycemia. The mice were then injected for six days with vehicle alone or vehicle plus 30 μg/Kg of Ucn 3. Following treatment serum glucose (left panel) and serum insulin levels (right panel were determined.
To directly assess the in vivo activity of Ucn 3 in this model system C57/B6 mice were fed with high fat diet (45% Kcal) for 16 weeks. The mice were then injected i.p. with either vehicle or mouse Ucn 3 (30 μg/kg) for 6 days. […] These studies confirm the role of Ucn 3 in mediating increased insulin response to high blood sugar.

isolated rat islets = assay: Insulin secretion from isolated rat islets; format: cell-based; details: 10 nM in the presence of 8.4 mM glucose
Description: FIG. 4a-b: The effect of CRFR2 antagonist on insulin secretion in isolated rat islets. (a) The effect of astressin2B (Ast2-B) on insulin secretion in response to glucose in isolated rat islets. […] The asterisk indicates a statistically significant difference between results from the control versus Ast2-B. (b) Isolated rat isles were pre-treated with anti-Ucn 3 IgG or control IgG followed by addition of indicated concentration of glucose. Y-axis indicates insulin secretion from the treated islets. The double asterisks indicate a statistically significant difference between the indicated treatments. […]
To assess the effect of CRFR2 antagonism on islet cell function secretion of insulin from isolated rat islets was studied. […] Thus, activation of CRFR2 by endogenous ligands is involved in insulin secretion induced by high levels of glucose.
In order to determine the role of Ucn 3 in glucose induced insulin secretion, isolated rat islets were pretreated with an anti-Ucn 3 IgG prior to glucose treatment.

O=S(=O)(NCCNC/C=C/c1ccc(Br)cc1)c1cccc2cnccc12 [H-89]
phosphorylation of IRS-1 on S307 by Ucn 2 [1]: completely blocked

C[N+](C)(C)CCOC(N)=O [carbachol]
Ucn 3 secretion in the presence of 2.8 mM glucose (MIN6 cells): minimal or moderate | Ucn 3 release in the presence of 10 mM glucose (MIN6 cells): significantly stimulated

Ucn 3: Urocortin 3, CRF family member acting as CRFR2 agonist; mouse Ucn 3 (SEQ ID NO:3) (FTLSLDVPTNIMNILFNIDKAKNLRAKAAANAQLMAQI; ends and bridges not checked; listed as Mus musculus)
glucose levels [2]: significantly lower glucose levels | insulin levels [2]: higher insulin levels compared to the control, though the difference was not statistically significant

CC1=NS(=O)(=O)c2cc(Cl)ccc2N1 [diazoxide]
glucose-induced Ucn 3 secretion (MIN6 cells; pretreatment, 100 μM): effectively blocked

Exendin-4: a long acting GLP-1 analogue
insulin release from isolated islets (isolated rat islets): significantly stimulated; also recorded: stimulated insulin release | Ucn 3 secretion in the presence of 2.8 mM glucose (MIN6 cells): minimal or moderate | Ucn 3 release in the presence of 10 mM glucose (MIN6 cells): significantly stimulated
